The source of these data is patent US6194451A, “Matrix metalloproteinase inhibitors” (Pharmacia & Upjohn S.p.A., priority 1997, dated 2001).

Data set [1] is described as follows: Pharmacokinetic Assay (Protocol C): plasma levels after i.v. and oral administration to rats. The data set is classed as in vivo, rat (male Sprague-Dawley). As to conditions: 15 mg/kg. As to the method:
Male rats (Sprague-Dawley; body weight about 250-300 g) were acclimatized for about one week before the start of the study. […] Before treatment, rats were overnight fasted. For each compound to be assessed, three rats were treated intravenously (injection in the tail vein as a bolus) with a single dose of 15 mg/kg (as free base or free acid if needed) body weight. Other three rats were treated orally (single bolus dose by gastric gavage) with 15 mg/kg of the same compound. In same cases, according to the detection limit of each particular compound, and its availability in stock, these standard doses were modified as needed.
Blood samples were collected into syringes especially prepared for use with the cannulated animals via the SCV cannula. Under standard conditions, blood samples (0.2 mL) were transferred into heparinized tubes at the following times: 0 (pre-dose), 2, 4, 8, 16, 30, 45, 60, 90 min, 2, 4, 6, 8 and 24 h after iv administration; 0 (pre-dose), 5, 10, 30, 45, 60, 90 min, 2, 4, 6, 8, and 24 h after oral administration. Plasma was obtained immediately by centrifugation (about 10,000 rpm for 3 min) and stored at -80° C. till analysis. Plasma samples were assayed for parent drug concentrations using an appropriate analytical method. Under standard conditions, liquid chromatography--tandem mass spectrometry (LC/MS-MS) was used.
Non-compartmental pharmacokinetic calculations were performed with the aid of Pharm-NCA package (SIMED, France). Maximum plasma concentration, Cmax, and the corresponding time, tmax, were read as the coordinates of the highest raw-data point for individual plasma profiles. Terminal phase was evaluated by graphic judgement by eye; terminal rate constant, was calculated as the slope of the terminal linear portion of natural log-transformed plasma concentrations vs. time curve, obtained using linear regression. Terminal half-life, t1/2,z, was calculated as ln(2)/lz. The area under the plasma concentration-time curve was estimated by the linear trapezoidal rule up to the last measured concentration (AUC(0-tz)) and extrapolated to infinity assuming monoexponential decay, using the formula AUC=AUC(0-tz)+C(tz)/lz, where C(tz) is the measured concentration of the last point with detectable concentration. Following iv dosing, systemic clearance was obtained using the formula Cl=Dose/AUC. According to Protocol C, the pharmacokinetic in rats of some representative compounds within the present invention was evaluated. Significant pharmacokinetic data obtained in rats at a 15 mg/kg dose were as follows: […]

Data set [2] has as its system release of TNF from THP-1 cells. In words: Cellular Assay (Protocol B): inhibition of release of TNF from LPS-stimulated THP-1 cells. In kind it is cell-based. Particulars: Homo sapiens, LPS 5 microg/mL, 4 h. As for the experimental part:
For example, the following cell-based assay was used to assess such activity:
THP-1 cells, cultured in RPMI 1640 supplemented with 10% FCS, were distributed into 24-well plates, 1 mL of a suspension of 1×10^6 cells/mL in each well. Compounds to be tested, dissolved in DMSO and diluted with the culture medium (1% final DMSO concentration) were added. Plates were incubated for 30 min at 37° C. in 5% CO2, and lipopolisaccharide (LPS 0111:B4, 5 microg/mL) was added as a stimulant. After a further 4 h incubation, cells were harvested, centrifuged (2,000 rpm, 7 min), and the surnatant was collected and freezed (-20° C.) until analysis. Analysis was run by classical ELISA methodology (monoclonal anti-TNF-a antibody, rabbit capture policlonal antibody, and peroxidated anti-rabbit antibody).

Turning to `CNC(=O)[C@@H](NC(=O)[C@H](CC(C)C)[C@](O)(CO)C(=O)NO)C(C)(C)C` [Example 3], the “plasma clearance compared with literature hydroxamic acid MMP inhibitors” value in data set [1] (to our best knowledge) is given as “inferior to that reported for any hydroxamic acid MMP inhibitor disclosed in the literature”. The AUC iv in data set [1] (iv) was found to be 1.53 mg·min/mL. In addition, the half-life in data set [1] (rat, plasma, terminal half-life, read-out: t1/2,z (converted)) was 5.4 h. The clearance in data set [1] (rat, plasma, iv) was 9.89 mL/min/kg. For the same compound, in data set [1] (rat, plasma, oral), the AUC is 1100 ng·h/mL. Inhibition in data set [2] was half-maximal at 8.1 µM (IC50).
